Each block holds one compound with its values, some of them ahead of it.
System: 616215-338-R-J1-PDC complex spheroid viability
Assay: Anticancer human tumor 616215-338-R-J1-PDC patient-derived colon adenocarcinoma cell line growth inhibition [RAS]
Conditions: for IC50: curve of first compound; for viability, T/C: stronger effect = lower value
From the text: RAS pathway inhibitors in Combinations in Complex Spheroids
A high-throughput screen of multi-cell type tumor spheroids was designed to identify active combinations of RAS pathway inhibitors and targeted small molecules. Complex spheroids include a stromal component modeled by human endothelial cells (HUVEC) and fibroblasts modeled by human mesenchymal stem cells (MSCs). The concentration ranges selected for each drug and investigational agent were based upon clinically achievable concentrations if the clinical Cmax of the agent was known.
Compounds. The drugs and investigational agents: abemaciclib (NSC768073), cobimetinib (NSC768068), divarasib (GDC6063, NSC841802), docetaxel (NSC628503), GDC-1971 (RLY-1971, NSC841576), gemcitabine (NSC613327), inavolisib (NSC800729), ipatasertib (NSC767898), KB-0742 (NSC834161), MRTX-1133 (NSC836407), osimertinib (NSC779217), RMC-4630 (NSC839698), RMC-6236 (NSC851965), RMC-6291 (NSC852671), Ro-3306 (NSC812927), sapanisertib (NSC764658), SN-38 (NSC673596), staurosporine (NSC755774), SY5609 (NSC837396), and tovorafenib (DAY101, NSC766906), were obtained from the National Cancer Institute (NCI) Developmental Therapeutics Program Chemical Repository. The FDA-approved anticancer drug set is available from the NCI Developmental Therapeutics Program. […] The stock solutions were prepared in dimethyl sulfoxide (DMSO, Sigma-Aldrich, St. Louis, MO, cat. D2650) at 800-fold the tested concentration and stored at -70 degrees C prior to their use. All drugs and investigational agents were tested over a range starting from a high concentration at or near the clinical Cmax and decreasing in half-log increments. If the clinical Cmax for an agent had not been determined, the highest concentration tested was 10 microM.
Cell Culture. All cells were maintained in an incubator at 37 degrees C and 5% CO2 with 95% humidity. The PDC lines were cultured according to standard operating procedures established by the NCI PDMR. All PDCs were thawed and cultured in Matrigel-coated flasks prepared with a working solution of 1X Ham's F-12 nutrient mix, without supplementation (Invitrogen, Waltham, MA, cat. 11765054), 100 U/mL penicillin-streptomycin (Invitrogen, cat. 15140122), and 2.5% Matrigel (Corning Inc., Corning, NY, cat. 354248) for the first three passages. The 362531-283-R-J2-PDC and 782815-120-R-J1-PDC lines were cultured in 6C/Colon 1B media, which includes advanced DMEM/F-12 (Thermo Fisher Scientific, cat. 12634028), 10 mM HEPES (Thermo Fisher Scientific, cat. 15630080), 1X GlutaMAX supplement (Thermo Fisher Scientific, cat. 35050061), 0.1 mg/mL primocin (InvivoGen, San Diego, CA, cat. ant-pm-2), 10% defined fetal bovine serum, heat inactivated (HyClone Laboratories Inc., Logan, UT, cat. SH30070.03HI), 50% L-WRN conditioned media (ATCC, cat. CRL-3276), 1.25 mM N-Acetyl-L-cysteine (Sigma-Aldrich, cat. A9165), 10 mM nicotinamide (Sigma-Aldrich, cat. N0636), 1X B-27 supplement (Thermo Fisher Scientific, cat. 17504044), 1X N-2 supplement (Thermo Fisher Scientific, cat. 17502048), 50 ng/mL human EGF (Thermo Fisher Scientific, cat. PHG0311), and 10 microM Y-27632 dihydrochloride (Tocris Bioscience, cat. 1254). The K12877-001-R-J1-PDC line was cultured in 6I media, which includes all 6C/Colon 1B media plus 10 ng/mL human FGF-10 (PeproTech, cat. 100-26), 1 ng/mL human FGF-2 (PeproTech, cat. 100-18B), 1 µM prostaglandin E2 (Tocris Bioscience, cat. 2296), […] hydrocortisone (Sigma-Aldrich, cat. H4001), and […] bovine insulin (Sigma-Aldrich, cat. I6634). The K86415-001-R-J1-PDC line was cultured in 6D media, which includes all 6C/Colon 1B media components minus the L-WRN conditioned media. The 485176-168-R4-J1-PDC was cultured in PANC media, which includes all 6C/Colon 1B media plus 100 ng/mL human FGF-10 (PeproTech, cat. 100-26), 500 nM SB-431542 (Selleckchem, cat. S1067), and 10 nM gastrin (Tocris Bioscience, cat. 3006). […]
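Also: spheroids exposed to agents for seven days before viability readout.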
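For viability, T/C in this document: 100% = DMSO vehicle control viability.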

IC50 (second compound 0.000949 µM): 1.82 µM | IC50 (second compound 0.003 µM): 1.76 µM | IC50 (second compound 0.00949 µM): 1.77 µM | IC50 (second compound 0.03 µM): 1.77 µM | IC50 (second compound 0.0949 µM): 1.81 µM | IC50 (second compound 0.3 µM): 1.57 µM
SMILES: CCC(CC)c1cc(NC2CCC(N)C2)n2nccc2n1 (centres undefined) + CCn1c(-c2cccnc2C(C)OC)c2c3cc(ccc31)N1CCOC(CC(NC(=O)C(C(C)C)N(C)C(=O)C3(F)CCN(C(=O)C#CC(C)(C)N(C)C)CC3)C(=O)N3CCCC(N3)C(=O)OCC(C)(C)C2)C1
viability, T/C (second compound 0.000949 µM, first compound 0.0316 µM): 107% | viability, T/C (second compound 0.000949 µM, first compound 0.1 µM): 89.4% | viability, T/C (second compound 0.000949 µM, first compound 0.316 µM): 109% | viability, T/C (second compound 0.000949 µM, first compound 1 µM): 107% | viability, T/C (second compound 0.000949 µM, first compound 3.16 µM): 0.55% | viability, T/C (second compound 0.000949 µM, first compound 10 µM): 0.29% | viability, T/C (second compound 0.003 µM, first compound 0.0316 µM): 101% | viability, T/C (second compound 0.003 µM, first compound 0.1 µM): 94.6% | viability, T/C (second compound 0.003 µM, first compound 0.316 µM): 89.1% | viability, T/C (second compound 0.003 µM, first compound 1 µM): 106% | viability, T/C (second compound 0.003 µM, first compound 3.16 µM): 0.5% | viability, T/C (second compound 0.003 µM, first compound 10 µM): 0.26% | viability, T/C (second compound 0.00949 µM, first compound 0.0316 µM): 92.2% | viability, T/C (second compound 0.00949 µM, first compound 0.1 µM): 92.8% | viability, T/C (second compound 0.00949 µM, first compound 0.316 µM): 101% | viability, T/C (second compound 0.00949 µM, first compound 1 µM): 111% | viability, T/C (second compound 0.00949 µM, first compound 3.16 µM): 0.46% | viability, T/C (second compound 0.00949 µM, first compound 10 µM): 0.26% | viability, T/C (second compound 0.03 µM, first compound 0.0316 µM): 101% | viability, T/C (second compound 0.03 µM, first compound 0.1 µM): 93.3% | viability, T/C (second compound 0.03 µM, first compound 0.316 µM): 91.2% | viability, T/C (second compound 0.03 µM, first compound 1 µM): 109% | viability, T/C (second compound 0.03 µM, first compound 3.16 µM): 0.45% | viability, T/C (second compound 0.03 µM, first compound 10 µM): 0.22% | viability, T/C (second compound 0.0949 µM, first compound 0.0316 µM): 103% | viability, T/C (second compound 0.0949 µM, first compound 0.1 µM): 110% | viability, T/C (second compound 0.0949 µM, first compound 0.316 µM): 106% | viability, T/C (second compound 0.0949 µM, first compound 1 µM): 102% | viability, T/C (second compound 0.0949 µM, first compound 3.16 µM): 0.44% | viability, T/C (second compound 0.0949 µM, first compound 10 µM): 0.27% | viability, T/C (second compound 0.3 µM, first compound 0.0316 µM): 114% | viability, T/C (second compound 0.3 µM, first compound 0.1 µM): 112% | viability, T/C (second compound 0.3 µM, first compound 0.316 µM): 116% | viability, T/C (second compound 0.3 µM, first compound 1 µM): 82.1% | viability, T/C (second compound 0.3 µM, first compound 3.16 µM): 0.46% | viability, T/C (second compound 0.3 µM, first compound 10 µM): 0.29%

IC50 (second compound 0.0316 µM): > 10 µM | IC50 (second compound 0.1 µM): > 10 µM | IC50 (second compound 0.316 µM): 5.23 µM | IC50 (second compound 1 µM): 0.537 µM | IC50 (second compound 3.16 µM): 0.302 µM | IC50 (second compound 10 µM): 0.182 µM
SMILES: Cc1nc(N2CCC3(CC2)COC(C)C3N)c(CO)nc1Sc1ccnc(N)c1Cl (centres undefined) + C#Cc1c(F)ccc2cc(O)cc(-c3ncc4c(N5CC6CCC(C5)N6)nc(OCC56CCCN5CC(F)C6)nc4c3F)c12
viability, T/C (second compound 0.0316 µM, first compound 0.0316 µM): 99.5% | viability, T/C (second compound 0.0316 µM, first compound 0.1 µM): 108% | viability, T/C (second compound 0.0316 µM, first compound 0.316 µM): 116% | viability, T/C (second compound 0.0316 µM, first compound 1 µM): 95.2% | viability, T/C (second compound 0.0316 µM, first compound 3.16 µM): 88.5% | viability, T/C (second compound 0.0316 µM, first compound 10 µM): 67.8% | viability, T/C (second compound 0.1 µM, first compound 0.0316 µM): 101% | viability, T/C (second compound 0.1 µM, first compound 0.1 µM): 113% | viability, T/C (second compound 0.1 µM, first compound 0.316 µM): 104% | viability, T/C (second compound 0.1 µM, first compound 1 µM): 79.6% | viability, T/C (second compound 0.1 µM, first compound 3.16 µM): 68% | viability, T/C (second compound 0.1 µM, first compound 10 µM): 63.1% | viability, T/C (second compound 0.316 µM, first compound 0.0316 µM): 113% | viability, T/C (second compound 0.316 µM, first compound 0.1 µM): 116% | viability, T/C (second compound 0.316 µM, first compound 0.316 µM): 98.3% | viability, T/C (second compound 0.316 µM, first compound 1 µM): 75.3% | viability, T/C (second compound 0.316 µM, first compound 3.16 µM): 57.7% | viability, T/C (second compound 0.316 µM, first compound 10 µM): 42.1% | viability, T/C (second compound 1 µM, first compound 0.0316 µM): 98.2% | viability, T/C (second compound 1 µM, first compound 0.1 µM): 97.2% | viability, T/C (second compound 1 µM, first compound 0.316 µM): 52.7% | viability, T/C (second compound 1 µM, first compound 1 µM): 48.5% | viability, T/C (second compound 1 µM, first compound 3.16 µM): 48.2% | viability, T/C (second compound 1 µM, first compound 10 µM): 43.7% | viability, T/C (second compound 3.16 µM, first compound 0.0316 µM): 88.8% | viability, T/C (second compound 3.16 µM, first compound 0.1 µM): 67.9% | viability, T/C (second compound 3.16 µM, first compound 0.316 µM): 49.2% | viability, T/C (second compound 3.16 µM, first compound 1 µM): 49.9% | viability, T/C (second compound 3.16 µM, first compound 3.16 µM): 41.2% | viability, T/C (second compound 3.16 µM, first compound 10 µM): 54.1% | viability, T/C (second compound 10 µM, first compound 0.0316 µM): 52.2% | viability, T/C (second compound 10 µM, first compound 0.1 µM): 61.4% | viability, T/C (second compound 10 µM, first compound 0.316 µM): 43.8% | viability, T/C (second compound 10 µM, first compound 1 µM): 37% | viability, T/C (second compound 10 µM, first compound 3.16 µM): 34.6% | viability, T/C (second compound 10 µM, first compound 10 µM): 33%

Source: PubChem BioAssay AID2060898 (Molecular Pharmacology Branch, DTP, NCI, 2025)
